Reference: patent US20160194299A1 (priority 2013, published 2016)
≈ marks a conversion by molar mass, not a printed value. Where two headings read alike, the source gives them in different places.

Key:
Mtb [1] = assay: microbe, parasite or virus in culture; format: cell-based, Mycobacterium tuberculosis; settings: for MIC: Mycobacterium tuberculosis, read-out: MIC (II)
Mtb [2] = assay: microbe, parasite or virus in culture; format: cell-based, Mycobacterium tuberculosis; settings: Mycobacterium tuberculosis, read-out: MIC (III)
Mtb [3] = assay: microbe, parasite or virus in culture; format: cell-based, Mycobacterium tuberculosis; settings: Mycobacterium tuberculosis, read-out: MIC (I)
in vitro = settings: African green monkey

| SMILES | MIC (Mtb [1]) [µg/mL] | MIC (II) (Mtb [1]) | MIC (Mtb [2]) [µg/mL] | MIC (Mtb [3]) [µg/mL] | CC50 (in vitro) [µg/mL] |
| --- | --- | --- | --- | --- | --- |
| CCOC(=O)NC(=O)c1ccsc1NC(=O)c1csc(-c2ccncc2)n1 [Compound 2] | 1 to 3 (≈ 2.48 to 7.45 µM) |  |  |  |  |
| COC(=O)NC(=O)c1ccsc1NC(=O)c1ccc(S(=O)(=O)N2CCCC2)cc1 [Compound 5] | < 1 |  |  |  |  |
| CCOC(=O)NC(=O)c1ccsc1NC(=O)c1nc2cc(OC)ccc2s1 [Compound 6] | < 1 |  |  |  |  |
| CCNC(=O)Nc1cc(C(=O)Nc2sccc2C(=O)NC(=O)OCC)ccn1 [Compound 7] | < 1 |  |  |  |  |
| CCOC(=O)NC(=O)c1ccsc1NC(=O)c1ccnc(NC(=O)c2ccc(F)cc2)c1 [Compound 8] | 1 to 3 (≈ 2.19 to 6.57 µM) |  |  |  |  |
| CCOC(=O)NC(=O)c1ccsc1NC(=O)c1ccc2c(c1)NC(=O)CS2 [Compound 9] | 1 to 3 (≈ 2.47 to 7.4 µM) |  |  |  |  |
| C#CCNC(=O)[C@H](CCC1(C)N=N1)NC(=O)CCC(=O)Nc1cc(C(=O)Nc2sccc2C(=O)NC(=O)OCC)ccn1 [Compound 98] | 1 to 3 (≈ 1.64 to 4.91 µM) |  |  |  |  |
| CCOC(=O)NC(=O)c1ccsc1NC(=O)c1ccc(S(C)(=O)=O)c([N+](=O)[O-])c1 [Compound 148] | > 3 |  |  |  |  |
| CCOC(=O)NC(=O)c1ccsc1NC(=O)c1ccnc(OCC)c1 [Compound 149] | > 3 |  |  |  |  |
| CCOC(=O)NC(=O)c1ccsc1NC(=O)c1ccc(S(C)(=O)=O)c(N)c1 [Compound 150] | > 3 |  |  |  |  |
| CCOC(=O)NC(=O)c1ccsc1NC(=O)c1sc2ncnc(O)c2c1C [Compound 151] | > 3 |  |  |  |  |
| CCOC(=O)NC(=O)c1ccsc1NC(=O)c1cnc(N2CCOCC2)nc1 [Compound 152] | > 3 |  |  |  |  |
| CCOC(=O)NC(=O)c1ccsc1NC(=O)c1ccnc(NS(=O)(=O)c2ccc(C)cc2)c1 [Compound 153] | > 3 |  |  |  |  |
| CCOC(=O)NC(=O)c1ccsc1NC(=O)c1ccnc(NC(=O)OCc2ccccc2)c1 [Compound 154] | > 3 |  |  |  |  |
| CCOC(=O)NC(=O)c1ccsc1NC(=O)C1CCN(c2ccccn2)CC1 [Compound 155] | > 3 |  |  |  |  |
| CC(=O)Nc1cc(C(=O)Nc2sccc2S(=O)(=O)c2ccccc2)ccn1 [Compound 156] | > 3 |  |  |  |  |
| CCOC(=O)NC(=O)c1ccsc1NC(=O)c1ccc(C(C)(F)F)nc1 [Compound 157] | > 3 |  |  |  |  |
| CCOC(=O)NC(=O)c1ccsc1NC(=O)c1cncs1 [Compound 158] | > 3 |  |  |  |  |
| CCOC(=O)NC(=O)c1ccsc1NC(=O)c1cnc2[nH]ccc2c1 [Compound 159] |  | C (key: A: <1 μg/mL; B: 1-3 μg/mL; C: >3 μg/mL) |  |  |  |
| CC(C)c1nnc(NC(=O)c2ccsc2NC(=O)c2nc3ccccc3s2)o1 [Compound 160] | > 3 |  |  |  |  |

| SMILES | MIC (Mtb [1]) [µg/mL] | MIC (II) (Mtb [1]) | MIC (Mtb [2]) [µg/mL] | MIC (Mtb [3]) [µg/mL] | CC50 (in vitro) [µg/mL] |
| --- | --- | --- | --- | --- | --- |
| CCOC(=O)NC(=O)c1ccsc1NC(=O)c1nc(C)cs1 [Compound 161] | > 3 |  |  |  |  |
| CCOC(=O)NC(=O)c1ccsc1NC(=O)c1ccc2[nH]c(S)nc2c1 [Compound 162] |  | C (key: A: <1 μg/mL; B: 1-3 μg/mL; C: >3 μg/mL) |  |  |  |
| CCOC(=O)NC(=O)c1ccsc1NC(=O)c1ccnc(N)c1 [Compound 163] | > 3 |  |  |  |  |
| CCOC(=O)NC(=O)c1ccsc1NC(=O)c1cncnc1 [Compound 164] | > 3 |  |  |  |  |
| CCOC(=O)NC(=O)c1ccsc1NC(=O)c1ccncn1 [Compound 165] | > 3 |  |  |  |  |
| CCOC(=O)NC(=O)c1ccsc1NC(=O)c1cnccn1 [Compound 166] | > 3 |  |  |  |  |
| CCOC(=O)NC(=O)c1ccsc1NC(=O)c1ccccn1 [Compound 167] | > 3 |  |  |  |  |
| CCOC(=O)NC(=O)c1ccsc1NC(=O)c1ccnc(N(C)C)c1 [Compound 168] | > 3 |  |  |  |  |
| Cc1c(-c2ccccc2)sc(NC(=O)c2nc3ccccc3s2)c1C(=O)N1CCOCC1 [Compound 169] | > 3 |  |  |  |  |
| CCOC(=O)NC(=O)c1ccsc1NC(=O)/C=C/c1nc2ccccc2s1 [Compound 365] |  |  | > 25 | < 1 | < 25 |
| CC(C)OC(=O)NC(=O)c1ccsc1NC(=O)/C=C/c1nc2ccccc2s1 [Compound 366] |  |  | 5 to 25 (≈ 12 to 60.2 µM) | < 1 | < 25 |
| CC(=O)N1CCC(OC(=O)NC(=O)c2ccsc2NC(=O)c2nc3cnccc3s2)CC1 [Compound 367] |  |  | > 25 | > 3 | 25 to 50 (≈ 52.8 to 106 µM) |
| CC(=O)N1CCC(OC(=O)NC(=O)c2ccsc2NC(=O)c2cnc3ccnn3c2)CC1 [Compound 368] |  |  | > 25 | > 3 | 25 to 50 (≈ 54.8 to 110 µM) |
| O=C(NC(=O)c1ccsc1NC(=O)c1nc2cnccc2s1)OCCOCc1ccccc1 [Compound 369] |  |  | > 25 | < 1 | 25 to 50 (≈ 51.8 to 104 µM) |
| O=C(NC(=O)c1ccsc1NC(=O)c1nc2ccccc2s1)OCCOCc1ccccc1 [Compound 371] |  |  | 5 to 25 (≈ 10.4 to 51.9 µM) | < 1 | < 25 |
| COCCOC(=O)NC(=O)c1ccsc1NC(=O)c1cnc2ccnn2c1 [Compound 372] |  |  | > 25 | < 1 | 25 to 50 (≈ 64.2 to 128 µM) |
| COCCOC(=O)NC(=O)c1ccsc1NC(=O)c1cn2ccccc2n1 [Compound 373] |  |  | > 25 | > 3 | 25 to 50 (≈ 64.4 to 129 µM) |
| O=C(NC(=O)c1ccsc1NC(=O)c1cn2ccccc2n1)OCCOCc1ccccc1 [Compound 374] |  |  | > 25 | < 1 | 25 to 50 (≈ 53.8 to 108 µM) |
| CC(=O)N1CCC(OC(=O)NC(=O)c2ccsc2NC(=O)c2cn3ccccc3n2)CC1 [Compound 375] |  |  | > 25 | > 3 | 25 to 50 (≈ 54.9 to 110 µM) |
| CCOC(=O)N(C)C(=O)c1ccsc1NC(=O)c1nc2cnccc2s1 [Compound 376] |  |  | > 25 | > 3 | < 25 |

| SMILES | MIC (Mtb [1]) [µg/mL] | MIC (II) (Mtb [1]) | MIC (Mtb [2]) [µg/mL] | MIC (Mtb [3]) [µg/mL] | CC50 (in vitro) [µg/mL] |
| --- | --- | --- | --- | --- | --- |
| CCOC(=O)N(C)C(=O)c1ccsc1NC(=O)c1cn2ccccc2n1 [Compound 377] |  |  | > 25 | > 3 | 25 to 50 (≈ 67.1 to 134 µM) |
| CCOC(=O)NC(=O)c1ccsc1NC(=O)c1nsc2ccccc12 [Compound 378] |  |  | > 25 | > 3 | 25 to 50 (≈ 66.6 to 133 µM) |
| O=C(NC(=O)c1ccsc1NC(=O)c1nc2cnccc2s1)OC1CCCC1 [Compound 380] |  |  | > 25 | < 1 | < 25 |
| O=C(NC(=O)c1ccsc1NC(=O)c1cn2ccccc2n1)OC1CCCCC1 [Compound 381] |  |  | > 25 | > 3 | < 25 |
| CN(C)C(=O)NC(=O)c1ccsc1NC(=O)c1cn2ccccc2n1 [Compound 383] |  |  | > 25 | > 3 | < 25 |
| CN(C)C(=O)NC(=O)c1ccsc1NC(=O)c1nc2cnccc2s1 [Compound 384] |  |  | > 25 | > 3 | < 25 |
| O=C(Nc1sccc1C(=O)NC(=O)N1CCOCC1)c1nc2cnccc2s1 [Compound 386] |  |  | > 25 | > 3 | < 25 |
| CCOC(=O)NC(=O)c1cc(F)sc1NC(=O)c1ccc2nccn2n1 [Compound 387] |  |  | > 25 | 1 to 3 (≈ 2.65 to 7.95 µM) | < 25 |
| O=C(NC(=O)c1cc(F)sc1NC(=O)c1nc2ccccc2s1)OCCN1CCOCC1 [Compound 388] |  |  | > 25 | < 1 | < 25 |
| CCOC(=O)NC(=O)c1cc(F)sc1NC(=O)c1nc2ncccc2s1 [Compound 389] |  |  | > 25 | 1 to 3 (≈ 2.54 to 7.61 µM) | < 25 |
| CC(C)OC(=O)NC(=O)c1ccsc1NC(=O)c1nc2ncccc2s1 [Compound 390] |  |  | > 25 | < 1 | < 25 |
| CC(C)OC(=O)NC(=O)c1cc(F)sc1NC(=O)c1nc2ncccc2s1 [Compound 391] |  |  | > 25 | < 1 | < 25 |
| CCOC(=O)NC(=O)c1ccsc1NC(=O)c1nc2ccc(NC(=O)CN)cc2s1 [Compound 393] |  |  | > 25 | > 3 | < 25 |
| CCOC(=O)NC(=O)c1ccsc1NC(=O)c1cnc2ccsc2c1 [Compound 394] |  |  | > 25 | < 1 | < 25 |
| CC(C)OC(=O)NC(=O)c1ccsc1NC(=O)c1cnc2ccsc2c1 [Compound 395] |  |  | > 25 | < 1 | < 25 |
| CCOC(=O)NC(=O)c1ccsc1NC(=O)c1nc2ccccc2o1 [Compound 396] |  |  | > 25 | < 1 | < 25 |
| CC(C)OC(=O)NC(=O)c1ccsc1NC(=O)c1nc2ccccc2o1 [Compound 397] |  |  | > 25 | < 1 | < 25 |
| CCOC(=O)NC(=O)c1ccsc1NC(=O)c1ccc2nccnc2c1 [Compound 398] |  |  | 5 to 25 (≈ 13.5 to 67.5 µM) | < 1 | < 25 |
| CC(C)OC(=O)NC(=O)c1ccsc1NC(=O)c1ccc2nccnc2c1 [Compound 399] |  |  | > 25 | < 1 | < 25 |
